{
  "source": "patent US20240299318A1",
  "about": "“AMISELIMOD FOR PREVENTING, TREATING OR AMELIORATING ULCERATIVE COLITIS” (Bausch Health Ireland Limited, priority 2021, published 2024)",
  "key": {"[1]": {"settings": "comparator etrasimod; cited from earlier work"}, "human S1P1 receptor": {"target": "human S1P1 receptor (Homo sapiens, UniProt P21453)", "sequence (P21453 whole entry)": "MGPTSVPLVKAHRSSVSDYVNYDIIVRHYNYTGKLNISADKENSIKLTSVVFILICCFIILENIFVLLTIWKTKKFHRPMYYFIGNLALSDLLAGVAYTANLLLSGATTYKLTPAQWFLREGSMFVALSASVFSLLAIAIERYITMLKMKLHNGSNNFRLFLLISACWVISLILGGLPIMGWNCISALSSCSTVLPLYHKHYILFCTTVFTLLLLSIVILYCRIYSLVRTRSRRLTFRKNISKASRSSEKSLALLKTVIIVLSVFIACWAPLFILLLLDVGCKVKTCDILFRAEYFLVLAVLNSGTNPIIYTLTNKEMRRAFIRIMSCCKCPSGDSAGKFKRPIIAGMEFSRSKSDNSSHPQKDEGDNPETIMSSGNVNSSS", "test": "agonistic activity at human S1P1 receptor", "type": "biochemical", "settings": "compared with S1P4 and S1P5"}, "human S1P4 receptor": {"target": "T1, human S1P4 receptor (Homo sapiens, UniProt O95977)", "T1 sequence (O95977 1-384)": "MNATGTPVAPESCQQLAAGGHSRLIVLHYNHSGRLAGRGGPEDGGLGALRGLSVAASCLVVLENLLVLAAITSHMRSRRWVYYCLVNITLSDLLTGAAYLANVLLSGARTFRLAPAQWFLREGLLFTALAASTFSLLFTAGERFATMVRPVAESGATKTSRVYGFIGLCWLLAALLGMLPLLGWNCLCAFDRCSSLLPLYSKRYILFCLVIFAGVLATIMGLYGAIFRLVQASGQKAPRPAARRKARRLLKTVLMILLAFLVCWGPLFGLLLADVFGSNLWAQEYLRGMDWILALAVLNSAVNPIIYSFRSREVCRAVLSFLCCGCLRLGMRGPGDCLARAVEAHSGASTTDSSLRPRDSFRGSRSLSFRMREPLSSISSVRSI", "test": "agonistic activity at human S1P4 receptor", "type": "biochemical", "settings": "less potent than at human S1P1 receptor"}, "human S1Ps receptor": {"target": "human S1Ps receptor (Homo sapiens, UniProt Q9H228)", "sequence (Q9H228 whole entry)": "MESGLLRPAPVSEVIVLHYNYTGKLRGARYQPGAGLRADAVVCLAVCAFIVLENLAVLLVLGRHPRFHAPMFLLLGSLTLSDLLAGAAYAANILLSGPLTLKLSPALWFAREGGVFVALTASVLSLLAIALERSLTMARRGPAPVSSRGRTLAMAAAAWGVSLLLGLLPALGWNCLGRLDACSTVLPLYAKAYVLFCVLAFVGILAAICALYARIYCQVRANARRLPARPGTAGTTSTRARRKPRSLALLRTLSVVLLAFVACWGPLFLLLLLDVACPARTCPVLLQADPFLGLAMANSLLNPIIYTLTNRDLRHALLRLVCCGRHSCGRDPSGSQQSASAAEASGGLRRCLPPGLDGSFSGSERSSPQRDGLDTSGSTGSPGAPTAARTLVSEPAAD", "test": "agonistic activity at human S1Ps receptor", "type": "biochemical", "settings": "less potent than at human S1P1 receptor"}, "human S1P2 receptor": {"target": "human S1P2 receptor (Homo sapiens, UniProt O95136)", "sequence (O95136 whole entry)": "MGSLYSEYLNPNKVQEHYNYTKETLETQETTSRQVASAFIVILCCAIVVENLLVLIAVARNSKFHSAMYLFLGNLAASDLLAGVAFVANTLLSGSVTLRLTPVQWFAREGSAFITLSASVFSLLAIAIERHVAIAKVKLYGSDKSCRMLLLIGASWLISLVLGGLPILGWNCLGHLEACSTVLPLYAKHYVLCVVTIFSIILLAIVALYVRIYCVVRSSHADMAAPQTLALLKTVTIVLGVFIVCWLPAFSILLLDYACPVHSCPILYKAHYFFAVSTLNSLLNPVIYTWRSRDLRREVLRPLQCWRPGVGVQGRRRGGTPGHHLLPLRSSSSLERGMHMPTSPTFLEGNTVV", "test": "agonistic activity at human S1P2 receptor", "type": "biochemical"}, "S1P3 receptor": {"target": "S1P3 receptor (Homo sapiens, UniProt Q99500)", "sequence (Q99500 whole entry)": "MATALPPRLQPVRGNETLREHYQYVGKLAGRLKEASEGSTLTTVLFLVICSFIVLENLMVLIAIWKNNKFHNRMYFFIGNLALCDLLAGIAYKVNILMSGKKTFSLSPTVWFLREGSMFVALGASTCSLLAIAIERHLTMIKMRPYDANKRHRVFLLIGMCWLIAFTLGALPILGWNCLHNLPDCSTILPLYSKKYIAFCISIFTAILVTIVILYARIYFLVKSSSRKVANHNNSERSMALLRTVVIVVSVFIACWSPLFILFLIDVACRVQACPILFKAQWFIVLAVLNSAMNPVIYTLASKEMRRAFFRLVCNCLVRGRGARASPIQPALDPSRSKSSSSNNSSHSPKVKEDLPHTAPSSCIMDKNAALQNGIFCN", "test": "agonistic activity at S1P3 receptor", "type": "biochemical"}, "healthy subjects": {"system": "healthy subjects", "test": "Phase 1 randomized, double-blind, placebo-controlled safety study, upwardly titrated amiselimod", "type": "in vivo, human", "settings": "for discontinuation rate: safety population, 95 subjects per group", "description": "The safety of amiselimod in healthy subjects was evaluated in a Phase 1 randomized, double-blind, placebo-controlled study where the dose of amiselimod was upwardly titrated.\nA randomized, double-blind, multiple-dose, placebo-controlled, parallel study with a nested crossover design evaluated the safety and tolerability profile of amiselimod. Healthy adults were randomized in a 2:1:1 ratio during a 28-day treatment period accordingly: a single dose of placebo followed by oral amiselimod (upwardly titrated in doses ranging from 0.4 to 1.6 mg to achieve steady-state concentrations); a single dose of oral moxifloxacin 400 mg followed by placebo; or placebo followed by a single dose of moxifloxacin 400 mg (for the safety analysis, moxifloxacin arms were combined). The safety population included all subjects who received at least one dose of treatment. Adverse events (AE) and serious AEs were collected. Treatment-emergent AEs were defined as an AE that was starting or worsening at the time of or after study drug administration. Changes in clinical laboratory parameters (including lymphocyte counts), physical examinations, vital signs, and electrocardiogram parameters (including heart rate, PR, QRS, and QT intervals) were recorded. Subjects were permitted to withdraw if lymphocyte counts were ≤0.2×10^9/L."}, "[2]": {"test": "half-life and accumulation to steady state", "type": "in vivo, humans", "settings": "for half-life: in humans; for period of accumulation to steady state: inferred from long half-life"}, "[3]": {"system": "peripheral blood lymphocytes (PBLs)", "test": "reduction of peripheral blood lymphocytes after oral dose, mice", "type": "in vivo", "settings": "oral dose of 0.1 mg/kg or higher"}, "[4]": {"system": "peripheral blood lymphocytes (PBLs)", "test": "reduction of peripheral blood lymphocytes after oral dose, rats", "type": "in vivo", "settings": "oral dose of 0.1 mg/kg or higher"}, "[5]": {"system": "peripheral blood lymphocytes (PBLs)", "test": "reduction of peripheral blood lymphocytes after oral dose, cynomolgus monkeys", "type": "in vivo", "settings": "oral dose of 0.1 mg/kg or higher"}, "[6]": {"system": "colitis in the adoptive transfer of CD4+CD45RBhigh T cells", "test": "colitis in the adoptive transfer of CD4+CD45RBhigh T cells in SCID mice", "type": "in vivo", "settings": "oral administration"}, "heart rate": {"system": "heart rate", "test": "negative chronotropic activity", "settings": "in vivo", "text": "Chronotropic effects in the heart can include changes in the heart rate or rhythm. Negative chronotropic effects are those that result in a decreased heart rate and include bradyarrhythmia (bradycardia)."}, "[7]": {"test": "study of amiselimod 0.4 mg QD: steady state, AUC, Cmax, lymphocyte counts", "type": "in vivo", "settings": "for increase of steady-state AUC on day 13 compared with day 1 / increase of steady-state Cmax on day 13 compared with day 1: amiselimod 0.4 mg QD", "description": "Amiselimod has a half-life of about 400 hours. For example, amiselimod has a terminal half-life that is about 20 times longer than etrasimod, which has a half-life of about 17-20 hours. In a study, a daily dose of amiselimod achieved a therapeutic steady state after 14 days of 0.4 mg QD administration. On day 13, the steady-state AUC and Cmax for amiselimod 0.4 mg QD increased by 10-fold for amiselimod and by 4-fold for amiselimod-P compared with day 1. This increase in AUC and Cmax correlated with gradual decrease in absolute lymphocyte counts. The reduction in lymphocyte counts was maintained after amiselimod discontinuation, indicating a persistent therapeutic amiselimod AUC owing in part to the associated half-life. Accordingly, amiselimod may be administered in accordance with the methods described herein less frequently than once daily to achieve the desired treatment such, as for example, maintenance of Ulcerative Colitis. In some embodiments, the second dose may be administered during the second administration period (e.g., the maintenance dose phase) QD, BID, TID, or QID every other day during the second administration period or every two days during the second administration period or every three days during the second administration period or every four days during the second administration period or every five days during the second administration period or every six days during the second administration period or every seven days during the second administration period."}},
  "note": "Read-outs that look alike come from different tables or passages of the source.",
  "data": [
    {"smiles": "O=C(O)C[C@H]1CCc2c1[nH]c1ccc(OCc3ccc(C4CCCC4)c(C(F)(F)F)c3)cc21", "note": "[etrasimod]", "values": [
      {"measurement": "half-life", "setting": "[1]", "value": "0.708 to 0.833", "unit": "days"}
    ]},
    {"smiles": "CCCCCCCOc1ccc(CCC(N)(CO)COP(=O)(O)O)cc1C(F)(F)F", "note": "(stereo in doubt) [(S)-MT-1303-P]", "values": [
      {"measurement": "agonistic activity at human S1P1 receptor", "setting": "human S1P1 receptor", "value": "more potently than at human S1P4 receptor and human S1Ps receptor"},
      {"measurement": "agonistic activity at human S1P4 receptor", "setting": "human S1P4 receptor", "value": "agonistic activity"},
      {"measurement": "agonistic activity at human S1Ps receptor", "setting": "human S1Ps receptor", "value": "agonistic activity"},
      {"measurement": "agonistic activity at human S1P2 receptor", "setting": "human S1P2 receptor", "value": "no agonistic activity"},
      {"measurement": "agonistic activity at S1P3 receptor", "setting": "S1P3 receptor", "value": "no agonistic activity"}
    ]},
    {"smiles": "COc1c(N2C[C@@H]3CCCN[C@@H]3C2)c(F)cc2c(=O)c(C(=O)O)cn(C3CC3)c12", "note": "[Moxifloxacin, moxifloxacin, reference compound]", "values": [
      {"measurement": "Constipation", "setting": "healthy subjects; Days 1-26, n = 95", "value": "11 (12) n (%)"},
      {"measurement": "Dizziness", "setting": "healthy subjects; Days 1-26, n = 95", "value": "1 (1) n (%)"},
      {"measurement": "Headache", "setting": "healthy subjects; Days 1-26, n = 95", "value": "12 (13) n (%)"},
      {"measurement": "Number of subjects with an adverse event", "setting": "healthy subjects; Days 1-26, n = 95", "value": "49 (52) n (%)"},
      {"measurement": "Upper respiratory tract infection", "setting": "healthy subjects; Days 1-26, n = 95", "value": "1 (1) n (%)"},
      {"measurement": "White blood cell count decreased", "setting": "healthy subjects; Days 1-26, n = 95", "value": "0 n (%)"},
      {"measurement": "Constipation", "setting": "healthy subjects; Days 27+, n = 46", "value": "0 n (%)"},
      {"measurement": "Dizziness", "setting": "healthy subjects; Days 27+, n = 46", "value": "1 (2) n (%)"},
      {"measurement": "Headache", "setting": "healthy subjects; Days 27+, n = 46", "value": "0 n (%)"},
      {"measurement": "Number of subjects with an adverse event", "setting": "healthy subjects; Days 27+, n = 46", "value": "7 (15) n (%)"},
      {"measurement": "Upper respiratory tract infection", "setting": "healthy subjects; Days 27+, n = 46", "value": "0 n (%)"},
      {"measurement": "White blood cell count decreased", "setting": "healthy subjects; Days 27+, n = 46", "value": "0 n (%)"},
      {"measurement": "discontinuation rate", "setting": "healthy subjects", "value": 4, "unit": "%"}
    ]},
    {"smiles": "CCCCCCCOc1ccc(CCC(N)(CO)CO)cc1C(F)(F)F", "note": "[amiselimod]", "values": [
      {"measurement": "half-life", "setting": "[2]; human, in vivo, read-out: half-life (converted)", "value": "~16.7", "unit": "days"},
      {"measurement": "half-life", "setting": "[2]", "value": "approximately 400 hours"},
      {"measurement": "period of accumulation to steady state", "setting": "[2]", "value": "about 10 weeks"},
      {"measurement": "terminal half-life relative to etrasimod", "setting": "[2]; longer than etrasimod", "value": "about 20 times"},
      {"measurement": "number of peripheral blood lymphocytes (PBLs)", "setting": "[3]", "value": "significantly reduced"},
      {"measurement": "number of peripheral blood lymphocytes (PBLs)", "setting": "[4]", "value": "significantly reduced"},
      {"measurement": "number of peripheral blood lymphocytes (PBLs)", "setting": "[5]", "value": "significantly reduced"},
      {"measurement": "colitis", "setting": "[6]", "value": "reduced colitis"},
      {"measurement": "effect on colitis compared with murine anti-TNF-α antibody", "setting": "[6]", "value": "comparable to that of a murine anti-tumor necrosis factor-α (TNF-α) antibody"},
      {"measurement": "negative chronotropic activity", "setting": "heart rate", "value": "lack of negative chronotropic activity"},
      {"measurement": "time to therapeutic steady state", "setting": "[7]; 0.4 mg QD administration", "value": 14, "unit": "days"},
      {"measurement": "reduction in lymphocyte counts after discontinuation", "setting": "[7]; after amiselimod discontinuation", "value": "maintained"},
      {"measurement": "increase of steady-state AUC on day 13 compared with day 1", "setting": "[7]", "value": 10, "unit": "fold"},
      {"measurement": "increase of steady-state Cmax on day 13 compared with day 1", "setting": "[7]", "value": 10, "unit": "fold"},
      {"measurement": "Constipation", "setting": "healthy subjects; Days 1-13, n = 95", "value": "8 (8) n (%)"},
      {"measurement": "Dizziness", "setting": "healthy subjects; Days 1-13, n = 95", "value": "5 (5) n (%)"},
      {"measurement": "Headache", "setting": "healthy subjects; Days 1-13, n = 95", "value": "4 (4) n (%)"},
      {"measurement": "Number of subjects with an adverse event", "setting": "healthy subjects; Days 1-13, n = 95", "value": "55 (58) n (%)"},
      {"measurement": "Upper respiratory tract infection", "setting": "healthy subjects; Days 1-13, n = 95", "value": "1 (1) n (%)"},
      {"measurement": "White blood cell count decreased", "setting": "healthy subjects; Days 1-13, n = 95", "value": "18 (19) n (%)"},
      {"measurement": "Constipation", "setting": "healthy subjects; Days 14+, n = 92", "value": "6 (7) n (%)"},
      {"measurement": "Dizziness", "setting": "healthy subjects; Days 14+, n = 92", "value": "6 (7) n (%)"},
      {"measurement": "Headache", "setting": "healthy subjects; Days 14+, n = 92", "value": "11 (12) n (%)"},
      {"measurement": "Number of subjects with an adverse event", "setting": "healthy subjects; Days 14+, n = 92", "value": "57 (62) n (%)"},
      {"measurement": "Upper respiratory tract infection", "setting": "healthy subjects; Days 14+, n = 92", "value": "6 (7) n (%)"},
      {"measurement": "White blood cell count decreased", "setting": "healthy subjects; Days 14+, n = 92", "value": "13 (14) n (%)"},
      {"measurement": "amiselimod-related serious AE of atrial fibrillation", "setting": "healthy subjects; day 26, after amiselimod 1.6 mg for 3 of the preceding 4 days", "value": "One subject"},
      {"measurement": "mean absolute lymphocyte count, nadir", "setting": "healthy subjects; day 27", "value": 0.424, "unit": "thou/μL"},
      {"measurement": "changes to vital signs, physical examinations, and ECG parameters", "setting": "healthy subjects; in vivo", "value": "within normal limits"},
      {"measurement": "tolerability", "setting": "healthy subjects; multiple, upwardly titrated doses, healthy subjects", "value": "generally well tolerated"},
      {"measurement": "mean absolute lymphocyte count", "setting": "healthy subjects; predose", "value": 1.681, "unit": "thou/μL"},
      {"measurement": "discontinuation rate", "setting": "healthy subjects", "value": 8, "unit": "%"}
    ]},
    {"smiles": "CCCCCCCOc1ccc(CC[C@@](N)(CO)COP(=O)(O)O)cc1C(F)(F)F", "note": "[MT-1303-P]", "values": [
      {"measurement": "half-life", "setting": "[2]", "value": "approximately 400 hours"},
      {"measurement": "period of accumulation to steady state", "setting": "[2]", "value": "about 10 weeks"},
      {"measurement": "increase of steady-state AUC on day 13 compared with day 1", "setting": "[7]", "value": 4, "unit": "fold"},
      {"measurement": "increase of steady-state Cmax on day 13 compared with day 1", "setting": "[7]", "value": 4, "unit": "fold"}
    ]}
  ]
}
